Assay: Human HepG2 cell viability assay in 384 well format
Format: toxicity, cell-based
Design: dose 125 nL, time 70.5 hour; cytotoxicity at 70.5 h: concentration not given beside the values
Conditions: HepG2 cells, read-out: Inhibition

CCn1cnnc1C1CCN(C(=O)c2ccc3c(c2)nnn3C)CC1
cytotoxicity at 70.5 h: 22.3%

Cc1ccc(CN(C(=O)C(C)NC(N)=O)C2CC2)cc1C (stereo not given)
cytotoxicity at 70.5 h: 25.3%

CS(=O)(=O)NCC1CCCN(Cc2ccccc2F)C1 (stereo not given)
cytotoxicity at 70.5 h: -7.12%

Cc1nnc(NC(=O)c2c3c(nn2C2CCS(=O)(=O)C2)CCC3)s1 (stereo not given)
cytotoxicity at 70.5 h: -4.4%

CCN1Cc2c(C(=O)NCC3CC3)ncn2-c2ccccc2S1(=O)=O
cytotoxicity at 70.5 h: -9.23%

O=C(c1ccc(C(F)(F)F)nc1)N1CCCC(n2cncn2)C1 (stereo not given)
cytotoxicity at 70.5 h: -1.03%

CC(O)CNc1ccc(C#N)cc1C(F)(F)F (stereo not given)
cytotoxicity at 70.5 h: -12.9%

O=C(NCc1ccccn1)NC1CCCN(c2ncccn2)C1 (stereo not given)
cytotoxicity at 70.5 h: -9.45%

C[C@@H]1CN(c2nc3c(cc2C(N)=O)CCC3)CC[C@@]1(O)C1CCC1
cytotoxicity at 70.5 h: -12.9%

CCc1ccc(CN(C)Cc2nc(COc3ccccc3)no2)nc1
cytotoxicity at 70.5 h: -7.21%

Cc1cc2c(cc1C(=O)N1CC[C@H](CO)[C@@H](O)C1)OCCO2
cytotoxicity at 70.5 h: -7.62%

Cn1cccc1C(O)CNS(=O)(=O)Cc1ccccc1 (stereo not given)
cytotoxicity at 70.5 h: 12.5%

CC(CN1CCCC1=O)NC(=O)c1cc(=O)[nH]c2ccc(Cl)cc12 (stereo not given)
cytotoxicity at 70.5 h: -85.6%

O=C(CSc1ccc(Br)cc1)NS(=O)(=O)c1ccc2c(c1)OCCO2
cytotoxicity at 70.5 h: 4.15%

c1cc2c(c(-c3cc(N4CCOCC4)ncn3)c1)CCNC2
cytotoxicity at 70.5 h: -7.28%

CC(C)C(C)N1Cc2cccc(NCC(=O)N(C)C)c2C1 (stereo not given)
cytotoxicity at 70.5 h: -8.25%

CCN(C)C(=O)c1coc(COc2ccccc2)n1
cytotoxicity at 70.5 h: -4.16%

CC(C)N1CCC(C(=O)N2CCC(C(O)c3nccn3C)CC2)CC1 (stereo not given)
cytotoxicity at 70.5 h: -11.2%

Cn1cc([C@@H]2CN(S(C)(=O)=O)C[C@H]2N)c2ccncc21
cytotoxicity at 70.5 h: 19%

O=S(=O)(c1cccnc1)N1C[C@@H]2CC[C@H](C1)N(Cc1ccccc1)C2
cytotoxicity at 70.5 h: -6.7%

CCN1C(=O)C2(CCOCC2)c2cc(NC(=O)c3cnoc3C)ccc21
cytotoxicity at 70.5 h: -6.08%

CS(=O)(=O)CCN1CCC(Nc2c(Cl)cccc2C#N)CC1
cytotoxicity at 70.5 h: -94%

Cc1ccc(CCN[C@@H]2c3ccccc3C3(CCNCC3)[C@H]2O)s1
cytotoxicity at 70.5 h: -2.07%

Cn1cc(NC(=O)c2cccc(C(F)(F)F)c2)c(=O)n(C)c1=O
cytotoxicity at 70.5 h: -2.92%

CCN1CCN(C2CCN(Cc3nc(-c4ccoc4)no3)CC2)C1=O
cytotoxicity at 70.5 h: 1.49%

CCN(CC)C(=O)CNC(=O)N1CCC(c2ccc(OC)cc2)C1 (stereo not given)
cytotoxicity at 70.5 h: 12.9%

COc1ccc(NCC2(O)CCNCC2)cc1OC
cytotoxicity at 70.5 h: 6.97%

Cc1nc(CN(C)C2CCN(CCc3ccccn3)C2)no1 (stereo not given)
cytotoxicity at 70.5 h: 24.5%

COCCC(=O)N1C[C@@H](c2ccccc2F)[C@@]2(CCCC(=O)N2)C1
cytotoxicity at 70.5 h: -7.07%

COc1cccc(C2CCN2C(=O)c2cc(C(C)C)on2)c1 (stereo not given)
cytotoxicity at 70.5 h: -0.704%

Cc1nc(C)n(C2CCCN(C(=O)c3sccc3C3CC3)C2)n1 (stereo not given)
cytotoxicity at 70.5 h: 21.5%

Cc1ccc(CN(C)C(=O)CN2CCCC2c2cnn(C)c2)o1 (stereo not given)
cytotoxicity at 70.5 h: 16.6%

Cn1ccnc1CN1CCC2(CC1)COC2
cytotoxicity at 70.5 h: -7.76%

CN(C)CCN1CCO[C@H]2CN(C(=O)N(C)C)C[C@H]21
cytotoxicity at 70.5 h: 24.8%

COCCn1ccnc1C1CCN(Cc2ccccc2C#N)CC1
cytotoxicity at 70.5 h: -8.7%

CCc1nc(CN2CCN(C(=O)CCc3ccccc3)CC2)cs1
cytotoxicity at 70.5 h: 3%

CC(C)c1cc(NCC2(CO)CCC2)ncn1
cytotoxicity at 70.5 h: 17.4%

Cc1cn2c(=O)c(-c3ccnc(N[C@@H]4CCOC4)n3)cnc2s1
cytotoxicity at 70.5 h: -3.69%

Cn1cccc1C(=O)N[C@H]1CN(Cc2ccoc2)[C@@H]2CCCO[C@H]12
cytotoxicity at 70.5 h: 17.5%

O=C(Nc1cccs1)NC(CCCO)c1ccccc1 (stereo not given)
cytotoxicity at 70.5 h: -17.7%

CC(=O)N1CCO[C@@H]2CN(C(=O)NCc3ccccc3)CC[C@@H]2C1
cytotoxicity at 70.5 h: 9.54%

Cc1cnn(CCNCc2c(C)nn(CCO)c2C)c1
cytotoxicity at 70.5 h: 2.83%

CC(c1cccnc1)N1CCN(CCO)CC1 (stereo not given)
cytotoxicity at 70.5 h: 7.45%

CN(C)CC1CN(Cc2ccc3c(c2)OCO3)Cc2nccn2C1 (stereo not given)
cytotoxicity at 70.5 h: 27.2%

Cc1cc(CN2CCN(C(=O)c3ccc(=O)n(C)c3)CC2)no1
cytotoxicity at 70.5 h: -5.04%

Source: ChEMBL document CHEMBL3507680, “University of Dundee, Gates Library screen for HepG2 cell viability”
